Where a SMILES comes first, the peptide text is derived from it. [ ]: non-standard residue; d: D form. pY = N[C@@H](Cc1ccc(OP(=O)(O)O)cc1)C(=O)O
Key:
[1] = target: STAT3-gp130 phosphopeptide interaction (STAT3 SH2 domain) (Homo sapiens, UniProt P40763); assay: Competition fluorescence polarization assay
STAT3:DNA binding = conditions: electrophoretic mobility shift assay measuring STAT3:DNA binding; cited from earlier work

Chain of STAT3-gp130 phosphopeptide interaction (STAT3 SH2 domain) (P40763 127-711): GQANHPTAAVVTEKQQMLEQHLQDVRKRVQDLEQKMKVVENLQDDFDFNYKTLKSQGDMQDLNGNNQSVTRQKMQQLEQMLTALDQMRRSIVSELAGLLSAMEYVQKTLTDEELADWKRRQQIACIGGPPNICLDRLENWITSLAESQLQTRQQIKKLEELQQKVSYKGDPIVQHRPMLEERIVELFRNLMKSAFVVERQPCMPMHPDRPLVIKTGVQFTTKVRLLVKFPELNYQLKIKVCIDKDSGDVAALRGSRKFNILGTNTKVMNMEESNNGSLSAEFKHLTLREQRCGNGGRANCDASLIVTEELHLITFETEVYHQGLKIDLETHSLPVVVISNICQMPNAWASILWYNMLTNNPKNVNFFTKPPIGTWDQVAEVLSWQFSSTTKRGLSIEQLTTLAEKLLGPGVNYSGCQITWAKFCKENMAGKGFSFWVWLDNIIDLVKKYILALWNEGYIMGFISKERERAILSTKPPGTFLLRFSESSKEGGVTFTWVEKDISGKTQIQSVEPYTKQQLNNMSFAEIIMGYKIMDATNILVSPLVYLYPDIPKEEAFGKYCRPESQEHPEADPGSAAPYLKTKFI

Compound | IC50 [1] [nM] | IC50 (STAT3:DNA binding) [nM]
CC(=O)NCC(=O)N[C@@H](Cc1ccc(OP(=O)(O)O)cc1)C(=O)N[C@@H](CC(C)C)C(=O)N1CCC[C@H]1C(=O)N[C@@H](CCC(N)=O)C(=O)N[C@H](C(=O)N[C@H](C(N)=O)C(C)C)[C@@H](C)O [ac-pTyr] (Ac-G[pY]LPQTV-NH2) | 610 | –
Ac-G[pY]LPQTV-NH2 [gp130-derived phosphopeptide] | – | 150

Source: PMC7294595 (Bioorganic & medicinal chemistry, 2020)
